The source of these data is US20250171462A1 (NICO Therapeutics, Inc., priority 2022, published 2025).

Read-outs that look alike come from different tables or passages of the source. Some results are limits rather than exact numbers.

This experiment concerns the target T1, full-length SARM1 (FL-SARM1) (Homo sapiens, UniProt Q6SZW1).
T1 sequence (Q6SZW1 28-724): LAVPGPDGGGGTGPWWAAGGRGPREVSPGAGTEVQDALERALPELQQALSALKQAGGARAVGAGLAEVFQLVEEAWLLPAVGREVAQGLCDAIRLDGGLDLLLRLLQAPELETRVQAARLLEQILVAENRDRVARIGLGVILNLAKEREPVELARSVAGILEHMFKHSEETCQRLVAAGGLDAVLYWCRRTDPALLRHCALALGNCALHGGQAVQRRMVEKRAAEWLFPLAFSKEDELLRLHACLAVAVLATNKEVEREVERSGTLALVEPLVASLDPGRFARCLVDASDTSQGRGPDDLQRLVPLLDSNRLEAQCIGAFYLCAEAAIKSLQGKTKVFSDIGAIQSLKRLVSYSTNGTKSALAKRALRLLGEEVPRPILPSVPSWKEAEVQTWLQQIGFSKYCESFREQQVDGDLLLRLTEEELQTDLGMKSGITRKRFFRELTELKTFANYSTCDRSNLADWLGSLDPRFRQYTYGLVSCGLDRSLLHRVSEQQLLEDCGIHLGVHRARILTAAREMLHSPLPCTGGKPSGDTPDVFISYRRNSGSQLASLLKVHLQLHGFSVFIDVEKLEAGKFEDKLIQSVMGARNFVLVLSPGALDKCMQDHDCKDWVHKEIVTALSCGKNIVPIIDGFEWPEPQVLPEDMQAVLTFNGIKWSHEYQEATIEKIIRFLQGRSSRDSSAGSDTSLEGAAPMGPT
Kind of experiment: FL-SARM1 cellular lysate assay (NAD/NADH-Glo detection of remaining NAD+, NMN-activated).

Setting [1] is: Activity (IC50 class), 11 point curve.
[2] abbreviates: Activity (μM) (IC50), 11 point curve.
[3] abbreviates: read-out: Activity (IC50 class), 11 point curve.

For the compound `O=C(Nc1cccc(-c2ccccn2)c1)[C@@H]1CC1(F)F` [Example 131, (1S)-2,2-difluoro-N-(3-pyridin-2-ylphenyl)cyclopropane-1-carboxamide], the IC50 (in general, the midpoint of a concentration-inhibition curve) under setting [1] was above 10 µM and the IC50 under setting [2] amounted to 18 µM.

In the case of `COCC12CC(C)CC(C1)N2C(=O)Nc1cc(-c2ncccn2)c(C)cc1F` (single isomer, unassigned) [Example 199, trans-N-(2-fluoro-4-methyl-5-pyrimidin-2-ylphenyl)-1-(methoxymethyl)-3-methyl-6-azabicyclo[3.1.1]heptane-6-carboxamide], the IC50 reads like this: under setting [1], 1 to 10 µM; under setting [2], 4.3 µM.

In the case of `Cc1cccc(-c2cc(NC(=O)[C@@H]3CC3(F)F)ccc2C)n1` [Example 163, (1S)-2,2-difluoro-N-[4-methyl-3-(6-methylpyridin-2-yl)phenyl]cyclopropane-1-carboxamide], the IC50 is above 10 µM under setting [1] and 26 µM under setting [2].

With `Cc1ccc(NC(=O)N2[C@@H]3C[C@@H](C)C[C@H]2C3)cc1-c1cncc(C(F)(F)F)n1` [Example 228, cis-3-methyl-N-[4-methyl-3-[6-(trifluoromethyl)pyrazin-2-yl]phenyl]-6-azabicyclo[3.1.1]heptane-6-carboxamide], the IC50 under setting [2] stood at 0.09 µM and the IC50 under setting [3] lay in the range of 0.0001 to 1 µM.

`N#CCc1ccc(NC(=O)[C@@H]2CC2(F)F)cc1-c1ccccn1` [Example 145, (1S)-N-[4-(cyanomethyl)-3-pyridin-2-ylphenyl]-2,2-difluorocyclopropane-1-carboxamide]: the IC50 was 1 to 10 µM under setting [1] and 5 µM under setting [2].

Regarding `Cc1ccc(NC(=O)C2C3CCC2C3)cc1-c1ccccn1` (stereo not drawn) [Example 123, N-(4-methyl-3-pyridin-2-ylphenyl)bicyclo[2.1.1]hexane-5-carboxamide], the IC50 reads like this: under setting [2], 0.3 µM; under setting [3], 0.0001 to 1 µM.

For the compound `Cc1ccc(NC(=O)C2(C3CCC3)CC2)cc1-c1cccnn1` [Example 295, 1-cyclobutyl-N-(4-methyl-3-pyridazin-3-ylphenyl)cyclopropane-1-carboxamide], the IC50 is above 10 µM under setting [1] and 13 µM under setting [2].

In the case of `Cc1cc(C(F)(F)F)c(NC(=O)N2[C@@H]3C[C@@H](C)C[C@H]2C3)cc1-c1cccnn1` [Example 244, cis-3-methyl-N-[4-methyl-5-pyridazin-3-yl-2-(trifluoromethyl)phenyl]-6-azabicyclo[3.1.1]heptane-6-carboxamide], the IC50 was above 10 µM under setting [1] and 16 µM under setting [2].

For the compound `Cc1cc(NC(=O)N2C3CCCC2C3)cc(-c2ccccn2)c1C` [Example 71, N-(3,4-dimethyl-5-(pyridin-2-yl)phenyl)-6-azabicyclo[3.1.1]heptane-6-carboxamide], the IC50 by setting is: under setting [1], above 10 µM; under setting [2], 10.9 µM.

For the compound `Cc1ccc(NC(=O)[C@H]2[C@H](C)OCCN2c2ccccn2)cc1-c1ncc(F)cn1` [Example 270, (2S,3R)-N-(3-(5-fluoropyrimidin-2-yl)-4-methylphenyl)-2-methyl-4-(pyridin-2-yl)morpholine-3-carboxamide], the IC50 runs as follows: under setting [1], 1 to 10 µM; under setting [2], 9.5 µM.

Regarding `COC(C)[C@@]12CC(C[C@@H](C)C1)N2C(=O)Nc1ccc(C(F)(F)F)c(-c2nccnn2)c1` (single isomer, unassigned) [Example 209, cis-N-(3-(1,2,4-triazin-3-yl)-4-(trifluoromethyl)phenyl)-1-(1-methoxyethyl)-3-methyl-6-azabicyclo[3.1.1]heptane-6-carboxamide], the IC50 runs as follows: under setting [2], 0.5 µM; under setting [3], 0.0001 to 1 µM.

As to `CC1CCCCCN1C(=O)Nc1ccc(C(F)(F)F)c(-c2ncc(F)cn2)c1` (racemic) [Example 312, N-(3-(5-fluoropyrimidin-2-yl)-4-(trifluoromethyl)phenyl)-2-methylazepane-1-carboxamide], the IC50 was 1 to 10 µM under setting [1] and 1.4 µM under setting [2].
